In patent publication US20070099917A1, “Novel inhibitors and methods for their preparation” (THE WALTER AND ELIZA HALL INSTITUTE OF MEDICAL RESEARCH, priority 2005, published 2007):

Experiment: Hydrolysis of FMS derivative in mouse plasma
Format: in vitro ADME
Details: 100 μM in mouse plasma at 37° C., after 28 hours, RP-HPLC
Protocol: Mouse plasma was incubated with 100 μM FMS-6-amino-4-(3-chlorophenylamino)quinazoline at 37° C. Samples were taken and analysed on RP-HPLC as described above in Example 1b) ii). The relative amounts of the two peaks were calculated. Chromatograms of samples taken at 0 (see FIG. 5), 5 (see FIG. 6) and 22 (see FIG. 7) hours show the relative change in the amount of the two compounds (i.e. FMS-6-amino-4-(3-chlorophenylamino)quinazoline vs 6-amino-4-(3-chlorophenylamino)quinazoline) in the plasma after incubation at 37° C.

With `O=C(Nc1ccc2ncnc(Nc3cccc(Cl)c3)c2c1)OCC1c2ccccc2-c2ccc(S(=O)(=O)O)cc21` (stereo not shown) [FMS-6-amino-4-(3-chlorophenylamino)quinazoline] the “Hydrolysis to 6-amino-4-(3-chlorophenylamino)quinazoline in mouse plasma” value was “almost completely hydrolysed”.
